# Results reported in patent publication US9441014B2, “Skin permeating and cell entering (SPACE) peptides and methods of use thereof” (The Regents of the University of California, priority 2010, dated 2016).
# Like-named read-outs stand apart in the source and are kept apart here. Residues, ends and D or L forms follow the SMILES beside them.
# Legend:
# [1] = system: green fluorescent protein (GFP) in GFP-expressing endothelial cells; assay: GFP knockdown in GFP-expressing endothelial cells; format: cell-based
# Experimental: GFP-expressing endothelial cells (ATCC) were grown in Dulbecco's Modified Eagle's Medium supplemented with 10% fetal bovine serum. GFP siRNA, 5′-GACGUAAACGGCCACAAGUUC N6-3′ (SEQ ID NO:26) (Dharmacon), was conjugated to fluorescently labeled peptide (containing a free carboxyl group) through EDC chemistry.
# A 10 mM peptide solution was incubated with a 10 mM solution of N-(3-Dimethylaminopropyl)-N′-ethylcarbodiimide hydrochloride (EDAC, Sigma) and a 9.5 mM solution of N-Hydroxysulfosuccinimide sodium salt (NHS, Sigma) in equal parts in MES buffer (pH 5.5) for 15 minutes. The amine modified siRNA was then added to the mixture to conjugate the peptide to siRNA and allowed to mix overnight.
# The peptide-siRNA complex was added to the appropriate cell culture media to obtain a final concentration of 1 μM siRNA. The media along with peptide-siRNA was then added to the cells and allowed to incubate for 48 hours. Cells were imaged using confocal microscopy and image analysis was performed using ImageJ to determine the overall fluorescence intensity for each cell.
# human skin = assay: Peptide penetration in human skin (confocal microscopy); format: in vitro ADME
# Experimental: The ability of the SPACE peptide to penetrate human skin when removed from phage and conjugated to an exemplary small molecule in the form of a fluorescent tag was tested as follows. Full thickness human skin was obtained from the National Disease Research Interchange. […] Fluorescently labeled peptides, 200 μL of a 1 mg/mL solution, were placed in the donor compartment of the FDC. After 24 hours, the remaining solution in the donor compartment was removed and the FDC was dismantled. The skin sample was retrieved and rinsed with DI water to remove excess peptide or peptide complex on the surface of the skin.
# mouse skin = assay: Peptide penetration into mouse skin in-vivo
# Experimental: The ability of the SPACE peptide to penetrate mouse skin in-vivo was tested as follows. 200 μl of fluorescently labeled peptide (1 mg/ml) was applied on the skin of a mouse. Penetration was assessed at various time points by harvesting the skin, sectioning it and observing under a microscope.
# porcine skin [2] = assay: Inulin permeability of porcine skin after co-incubation with peptide; format: in vitro ADME
# human keratinocytes = assay: MTT assay on keratinocyte cultures; format: cell-based; conditions: 0.1-1.0 mg/mL
# Experimental: (a) Peptide internalization (percent of control) for control peptide and SPACE peptide at 4° C. and with the endocytosis inhibitors deoxy-D-glucose, chlorpromazine, nystatin, and EIPA in human keratinocytes. (b) Cell proliferation of human keratinocytes in the presence of control peptide (open bars) or SPACE peptide (closed bars) at 0.1 mg/mL and 1.0 mg/mL. Error cars indicate SD (N=4).
# porcine skin [3] = assay: Peptide penetration into porcine skin (confocal microscopy); format: in vitro ADME; conditions: 200 μL of 1 mg/mL, 24 hours
# Experimental: The ability of the SPACE peptide to penetrate porcine skin when removed from phage was tested as follows. Full thickness porcine skin was obtained and prepared as described above. Fluorescently labeled peptides, 200 μL of a 1 mg/mL solution, were placed in the donor compartment of the FDC. After 24 hours, the remaining solution in the donor compartment was removed and the FDC was dismantled. The skin sample was retrieved and rinsed with DI water to remove excess peptide or peptide complex on the surface of the skin.
# porcine skin [4] = format: in vitro ADME
# Experimental: The ability of the SPACE peptide to carry macromolecular cargos across the SC was tested as follows. Full thickness porcine skin was obtained and prepared as described above. The peptide was first conjugated to the macromolecule as described in greater detail below and then the peptide-macromolecule complex was placed into the donor compartment of the FDC. After 24 hours, the remaining solution in the donor compartment was removed and the FDC was dismantled. The skin sample was retrieved and rinsed with DI water to remove excess peptide complex on the surface of the skin.
# To conjugate the peptide to the macromolecule streptavidin, 80 μL of a 1 mg/mL biotinylated peptide solution was incubated with 20 μL of a 2 mg/mL streptavidin-Alexa Fluor 488 conjugate (Invitrogen) solution and incubated at room temperature for 30 minutes. The resulting solution was then placed into the donor compartment of the FDC. Skin samples were harvested after 24 hours and imaged as described above.
# The ability of the SPACE peptide to carry quantum dots across the SC was also tested. For the delivery of quantum dots into the skin, 198 μL of a 100 ng/mL biotinylated peptide solution was incubated with 2 μL of QDot 525 streptavidin conjugate (Invitrogen) for 1 hour at room temperature. The 200 μL suspension was then placed into the donor compartment of the FDC. […]
compound,measurement,setting,value
"5′-GACGUAAACGGCCACAAGUUC N6-3′ (GACGUAAACGGCCACAAGUUC; siRNA; 3' N6 group, conjugated to fluorescently labeled peptide by EDC chemistry, further chemistry not given here) [siRNA alone, GFP siRNA (Dharmacon)]",knockdown of GFP,"[1]; 1 μM siRNA, 48 hours",no significant knockdown
same,knockdown of GFP when complexed with Lipofectamine,"[1]; complexed with Lipofectamine, compared to no siRNA treatment",knockdown was significant
"C[C@H](N)C(=O)N[C@H]1CSSC[C@@H](C(=O)NCC(=O)O)NC(=O)[C@H](CCC(N)=O)NC(=O)[C@H](Cc2c[nH]cn2)NC(=O)[C@H](CCC(N)=O)NC(=O)[C@H]([C@@H](C)O)NC(=O)[C@H](CO)NC(=O)CNC(=O)[C@H]([C@@H](C)O)NC1=O [SPACE peptide] (HELM PEPTIDE1{A.C.T.G.S.T.Q.H.Q.C.G}$PEPTIDE1,PEPTIDE1,2:R3-10:R3$$$V2.0; N-terminus and C-terminus assumed)",penetration/localization in human skin observed from the top,human skin,high localization of the SPACE peptide within the corneocytes
same,penetration into mouse skin in vivo after 30 minutes,"mouse skin; mouse, in vivo",resulted in penetration
same,penetration into mouse skin in vivo after two hours,"mouse skin; mouse, in vivo",significant penetration into the skin and localization in the deep dermis
same,effect on inulin permeability,porcine skin [2],only a modest increase
same,toxicity to cells (MTT),human keratinocytes,not toxic
"C[C@H](N)C(=O)N[C@H]1CSSC[C@@H](C(=O)NCC(=O)O)NC(=O)[C@H](CO)NC(=O)[C@H](CCC(N)=O)NC(=O)[C@H]([C@@H](C)O)NC(=O)[C@H](CCC(N)=O)NC(=O)CNC(=O)[C@H](Cc2c[nH]cn2)NC(=O)[C@H]([C@@H](C)O)NC1=O [control peptide] (HELM PEPTIDE1{A.C.T.H.G.Q.T.Q.S.C.G}$PEPTIDE1,PEPTIDE1,2:R3-10:R3$$$V2.0; N-terminus and C-terminus assumed)",penetration/localization in human skin observed from the top,"human skin; top view looking down on SC, 24 hours",no significant penetration
same,penetration into mouse skin in vivo,mouse skin; 200 μl of 1 mg/ml topical,lack of skin penetration in vivo
same,penetration of fluorescently labeled peptide into porcine skin,porcine skin [3],No significant penetration
Streptavidin not conjugated to SPACE peptide: streptavidin-Alexa Fluor 488 conjugate (Invitrogen) alone,penetration of Alexa Fluor 488 streptavidin into porcine skin,porcine skin [4],minimal penetration into epidermis
